These results are taken from paper PMC5630020 (Genes & Development, 2017).

Series [1] deals with E. coli SspA homodimer (Escherichia coli, UniProt P0ACA3). Type of series: binding.
Series [2] concerns the molecule itself. The experiment in a line: SEC. In general terms: In gel filtration, larger molecules generally elute earlier.

In the case of `Nc1nc2c(ncn2[C@@H]2O[C@H](COP(=O)(O)OP(=O)(O)O)[C@@H](OP(=O)(O)OP(=O)(O)O)[C@H]2O)c(=O)[nH]1` [ppGpp], the DRaCALA entry in series [1] is reported as “only very weak binding requiring ppGpp concentrations in the high micromolar range”.

B1: E. coli SspA, wild type (natural protein, UniProt P0ACA3 1-212, looked up)
chain: MAVAANKRSVMTLFSGPTDIYSHQVRIVLAEKGVSFEIEHVEKDNPPQDLIDLNPNQSVPTLVDRELTLWESRIIMEYLDERFPHPPLMPVYPVARGESRLYMHRIEKDWYTLMNTIINGSASEADAARKQLREELLAIAPVFGQKPYFLSDEFSLVDCYLAPLLWRLPQLGIEFSGPGAKELKGYMTRVFERDSFLASLTEAEREMRLGRS
notes: also called wild-type SspA; E. coli SspA homodimer
The stoichiometry N is a count of units in the complex or per binding partner. Consider B1, for which, in series [2], the “stoichiometry N” value was 2.
